Source: the NIST ThermoML archive (doi:10.1016/j.jct.2017.03.004)
± gives the expanded uncertainty stated by the source.

What was measured:
[1] = for viscosity / mass density: 101 kPa, Liquid; for viscosity: Falling or rolling sphere viscometry; for mass density: Vibrating tube method
[2] = activity coefficient (dimensionless); of the first substance listed, at infinite dilution; xn = mol fraction of the nth substance listed; conditions: 101.33 kPa, Liquid, Chromatography, x1 = 0

N#C[N-]C#N.OCCC[n+]1ccccc1 [N-(3-hydroxypropyl)pyridinium dicyanamide]
[1]
Conditions	mass density [kg/m3]	viscosity [mPa·s]
298.15 K	1171.01 ± 2.9	115 ± 4
303.15 K	1167.78 ± 2.9	–
308.15 K	1164.58 ± 2.9	70.8 ± 1.8
313.15 K	1161.4 ± 2.9	–
318.15 K	1158.23 ± 2.9	47.1 ± 1.1
323.15 K	1155.09 ± 2.9	–
328.15 K	1151.97 ± 2.9	32.9 ± 0.8
333.15 K	1148.86 ± 2.9	–
338.15 K	1145.77 ± 2.9	23.4 ± 0.6
343.15 K	1142.69 ± 2.9	–
348.15 K	1139.63 ± 2.9	17.8 ± 0.4
353.15 K	1136.59 ± 2.9	–
358.15 K	1133.57 ± 2.9	14 ± 0.3
363.15 K	1130.58 ± 2.9	–
368.15 K	1127.62 ± 2.9	–

Conditions	Glass transition temperature [°C]
[1], Glass, DSC	-81 ± 0.8

CCC(=O)CC [pentan-3-one] + N#C[N-]C#N.OCCC[n+]1ccccc1
[2]
Conditions	activity coefficient
318.15 K	5.68 ± 0.39
328.15 K	5.92 ± 0.4
338.15 K	6.15 ± 0.42
348.15 K	6.36 ± 0.43
358.15 K	6.57 ± 0.45
368.15 K	6.79 ± 0.46

CCCO [propan-1-ol] + N#C[N-]C#N.OCCC[n+]1ccccc1
[2]
Conditions	activity coefficient
318.15 K	2.03 ± 0.14
328.15 K	2.03 ± 0.14
338.15 K	2.02 ± 0.14
348.15 K	2.02 ± 0.14
358.15 K	2.01 ± 0.14
368.15 K	2.01 ± 0.14

CC(C)O [propan-2-ol] + N#C[N-]C#N.OCCC[n+]1ccccc1
[2]
Conditions	activity coefficient
318.15 K	2.24 ± 0.15
328.15 K	2.2 ± 0.2
338.15 K	2.18 ± 0.15
348.15 K	2.15 ± 0.15
358.15 K	2.13 ± 0.14
368.15 K	2.11 ± 0.14

CCCc1ccccc1 [propylbenzene] + N#C[N-]C#N.OCCC[n+]1ccccc1
[2]
Conditions	activity coefficient
318.15 K	30.5 ± 2.1
328.15 K	30.8 ± 2.1
338.15 K	31.1 ± 2.1
348.15 K	31.3 ± 2.1
358.15 K	31.6 ± 2.2
368.15 K	31.8 ± 2.2

c1ccncc1 [pyridine] + N#C[N-]C#N.OCCC[n+]1ccccc1
[2]
Conditions	activity coefficient
318.15 K	1.39 ± 0.09
328.15 K	1.48 ± 0.1
338.15 K	1.56 ± 0.1
348.15 K	1.64 ± 0.11
358.15 K	1.72 ± 0.12
368.15 K	1.8 ± 0.12

C=Cc1ccccc1 [styrene] + N#C[N-]C#N.OCCC[n+]1ccccc1
[2]
Conditions	activity coefficient
318.15 K	6.93 ± 0.47
328.15 K	7.23 ± 0.49
338.15 K	7.51 ± 0.51
348.15 K	7.79 ± 0.53
358.15 K	8.06 ± 0.55
368.15 K	8.32 ± 0.57

C1CCOC1 [tetrahydrofuran] + N#C[N-]C#N.OCCC[n+]1ccccc1
[2]
Conditions	activity coefficient
318.15 K	3.1 ± 0.21
328.15 K	3.25 ± 0.22
338.15 K	3.38 ± 0.23
348.15 K	3.53 ± 0.24
358.15 K	3.66 ± 0.25
368.15 K	3.79 ± 0.26

c1ccsc1 [thiophene] + N#C[N-]C#N.OCCC[n+]1ccccc1
[2]
Conditions	activity coefficient
318.15 K	2.6 ± 0.18
328.15 K	2.71 ± 0.18
338.15 K	2.81 ± 0.19
348.15 K	2.93 ± 0.2
358.15 K	3.03 ± 0.21
368.15 K	3.14 ± 0.21

Cc1ccccc1 [toluene] + N#C[N-]C#N.OCCC[n+]1ccccc1
[2]
Conditions	activity coefficient
318.15 K	8.44 ± 0.58
328.15 K	8.72 ± 0.59
338.15 K	9.03 ± 0.62
348.15 K	9.31 ± 0.64
358.15 K	9.58 ± 0.65
368.15 K	9.85 ± 0.67

O [water] + N#C[N-]C#N.OCCC[n+]1ccccc1
[2]
Conditions	activity coefficient
328.15 K	0.399 ± 0.034
338.15 K	0.411 ± 0.034
348.15 K	0.421 ± 0.035
358.15 K	0.432 ± 0.035
